We go through 34 compounds from patent US8541588B2, “Sulfonamide derivatives” (Pfizer Limited, priority 2009, dated 2013).

Where only a bound is given, the exact number is not on record here.

The term IC50 denotes the concentration that gives 50% inhibition.

T1 sequence (Q15858 whole entry): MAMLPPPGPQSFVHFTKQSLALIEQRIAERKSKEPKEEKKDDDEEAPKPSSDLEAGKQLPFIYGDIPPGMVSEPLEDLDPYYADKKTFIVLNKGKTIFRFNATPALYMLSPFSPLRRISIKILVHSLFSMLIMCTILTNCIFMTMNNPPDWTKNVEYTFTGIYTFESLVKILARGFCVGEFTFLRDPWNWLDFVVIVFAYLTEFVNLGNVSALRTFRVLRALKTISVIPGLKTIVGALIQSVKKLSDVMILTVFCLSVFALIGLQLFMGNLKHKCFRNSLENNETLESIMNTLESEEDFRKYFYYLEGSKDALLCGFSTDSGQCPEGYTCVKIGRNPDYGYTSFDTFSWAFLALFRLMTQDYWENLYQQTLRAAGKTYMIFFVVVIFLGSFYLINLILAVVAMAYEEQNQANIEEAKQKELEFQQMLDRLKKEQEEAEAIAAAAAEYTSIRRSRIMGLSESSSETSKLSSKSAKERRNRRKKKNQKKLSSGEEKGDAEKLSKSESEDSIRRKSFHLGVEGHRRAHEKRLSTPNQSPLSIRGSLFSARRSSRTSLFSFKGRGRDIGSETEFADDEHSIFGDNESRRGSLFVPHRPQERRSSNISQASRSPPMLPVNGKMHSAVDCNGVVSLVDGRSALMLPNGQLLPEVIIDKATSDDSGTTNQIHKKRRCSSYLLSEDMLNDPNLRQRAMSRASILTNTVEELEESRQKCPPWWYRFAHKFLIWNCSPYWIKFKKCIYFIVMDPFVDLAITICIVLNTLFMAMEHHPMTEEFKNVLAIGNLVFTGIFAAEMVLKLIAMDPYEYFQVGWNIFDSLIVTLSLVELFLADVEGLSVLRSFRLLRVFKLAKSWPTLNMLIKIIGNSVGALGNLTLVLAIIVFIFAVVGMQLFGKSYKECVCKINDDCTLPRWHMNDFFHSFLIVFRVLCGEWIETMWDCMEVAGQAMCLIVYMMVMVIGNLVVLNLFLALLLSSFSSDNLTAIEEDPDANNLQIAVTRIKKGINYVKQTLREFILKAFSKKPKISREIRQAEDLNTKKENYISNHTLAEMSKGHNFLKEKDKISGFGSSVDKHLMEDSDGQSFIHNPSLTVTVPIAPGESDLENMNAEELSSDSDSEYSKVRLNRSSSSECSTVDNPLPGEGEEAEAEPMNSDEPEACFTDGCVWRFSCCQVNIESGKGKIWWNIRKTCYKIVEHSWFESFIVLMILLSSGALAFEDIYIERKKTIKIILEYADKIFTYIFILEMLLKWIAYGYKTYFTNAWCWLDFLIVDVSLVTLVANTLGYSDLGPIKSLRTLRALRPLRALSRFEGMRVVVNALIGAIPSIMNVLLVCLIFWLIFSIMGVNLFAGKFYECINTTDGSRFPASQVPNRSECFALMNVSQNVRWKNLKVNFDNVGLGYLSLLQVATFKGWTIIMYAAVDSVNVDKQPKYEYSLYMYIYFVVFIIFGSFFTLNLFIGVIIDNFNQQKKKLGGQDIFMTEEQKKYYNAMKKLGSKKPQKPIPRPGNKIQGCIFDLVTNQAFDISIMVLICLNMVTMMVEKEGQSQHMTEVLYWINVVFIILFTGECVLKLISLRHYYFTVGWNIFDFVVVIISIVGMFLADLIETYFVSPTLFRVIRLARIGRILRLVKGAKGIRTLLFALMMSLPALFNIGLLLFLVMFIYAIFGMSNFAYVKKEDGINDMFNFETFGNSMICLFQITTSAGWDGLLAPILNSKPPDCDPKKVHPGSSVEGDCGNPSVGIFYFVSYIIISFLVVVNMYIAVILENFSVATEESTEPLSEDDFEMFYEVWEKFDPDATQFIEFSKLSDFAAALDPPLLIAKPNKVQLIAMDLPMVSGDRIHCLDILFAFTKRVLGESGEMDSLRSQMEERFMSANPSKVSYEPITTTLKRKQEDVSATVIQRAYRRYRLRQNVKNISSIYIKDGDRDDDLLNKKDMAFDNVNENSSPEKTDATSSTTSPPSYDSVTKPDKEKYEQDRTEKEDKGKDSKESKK

The first assay addresses T1, Nav1.7 (or SCN9A) channel; HEK cells stably transfected with hSCN9A (Homo sapiens, UniProt Q15858).
T1 construct: expressed in transfected cells
The assay can be described thus: Nav1.7 block, PatchXpress 7000 automated whole-cell voltage clamp, estimated IC50 (EIC50). It is filed as cell-based. The following applies: PatchXpress platform; hSCN9A HEK cells held at V1/2 of inactivation; estimated IC50.
As to `N#Cc1cc(S(=O)(=O)Nc2ncc[nH]2)ccc1Oc1ccccc1-c1ccccc1` [Example 117, 4-(biphenyl-2-yloxy)-3-cyano-N-1H-imidazol-2-ylbenzenesulfonamide], the IC50 is 19.2 µM.

As to `Cc1nn(Cc2ccccc2)cc1-c1ccccc1Oc1ccc(S(=O)(=O)Nc2ncns2)cc1F` [Example 252, 4-(2-(1-benzyl-3-methyl-1H-pyrazol-4-yl)phenoxy)-3-fluoro-N-(1,2,4-thiadiazol-5-yl)benzenesulfonamide], the IC50 was 24.5 µM.

As for `O=S(=O)(Nc1nccs1)c1ccc(Oc2ccc(Oc3ccc(F)cc3)cc2)c(F)c1` [Example 124, 3-fluoro-4-[4-(4-fluorophenoxy)phenoxy]-N-1,3-thiazol-2-ylbenzenesulfonamide], the IC50 is 15.1 µM.

As for `N#Cc1cc(S(=O)(=O)Nc2ncc(Cl)s2)ccc1Oc1ccccc1Oc1ccccc1` [Example 134, N-(5-chloro-1,3-thiazol-2-yl)-3-cyano-4-(2-phenoxyphenoxy)benzenesulfonamide], the IC50 was 3.77 µM.

On to `Cc1cccc(-c2ccc(F)cc2F)c1Oc1ccc(S(=O)(=O)Nc2ncns2)cc1C#N` [Example 35, 3-cyano-4-[(2′,4′-difluoro-3-methylbiphenyl-2-yl)oxy]-N-1,2,4-thiadiazol-5-ylbenzenesulfonamide], for which the IC50 is 12.7 µM.

Turning to `O=S(=O)(Nc1nccs1)c1ccc(Oc2cc(C(F)(F)F)nn2-c2cc(F)ccc2F)c(F)c1` [Example 228, 4-[2-(2,5-difluoro-phenyl)-5-trifluoromethyl-2H-pyrazol-3-yloxy]-3-fluoro-N-thiazol-2-yl-benzenesulfonamide], the IC50 was 0.57 µM.

On to `N#Cc1cc(S(=O)(=O)Nc2nccs2)ccc1Oc1ccccc1-c1ccno1` [Example 174, 3-cyano-4-(2-(isoxazol-5-yl)phenoxy)-N-(thiazol-2-yl)benzenesulfonamide], for which the IC50 is given as above 10 µM.

Take `Cc1c(Cl)ccc(Oc2ccc(S(=O)(=O)Nc3nccs3)cc2C#N)c1-c1nnco1` [Example 197, 4-(4-chloro-3-methyl-2-[1,3,4]oxadiazol-2-yl-phenoxy)-3-cyano-N-thiazol-2-yl-benzenesulfonamide]: the half-inhibitory concentration (IC50) was 1.13 µM.

Take `O=S(=O)(Nc1nccs1)c1ccc(Oc2cccc(-c3ccccc3)c2)cc1F` [Example 210, 4-(biphenyl-3-yloxy)-2-fluoro-N-(thiazol-2-yl)benzenesulfonamide]: the IC50 is 1.37 µM.

The same assay, now with this note: estimated IC50; hSCN9A HEK cells, PatchXpress platform; Examples 283-814.
Take `COCc1cc(Oc2ccc(S(=O)(=O)Nc3nccs3)cc2C#N)ccc1-n1cc(Cl)cn1` [Example 496, 4-[4-(4-chloro-1H-pyrazol-1-yl)-3-(methoxymethyl)phenoxy]-3-cyano-N-1,3-thiazol-2-ylbenzenesulfonamide]: the IC50 is 3.8 µM.

`Cn1nccc1-c1cc(C2CC2)ccc1Oc1ccc(S(=O)(=O)Nc2nccs2)cc1F` [Example 309, 4-[4-Cyclopropyl-2-(1-methyl-1H-pyrazol-5-yl)phenoxy]-3-fluoro-N-1,3-thiazol-2-ylbenzenesulfonamide]: the IC50 was 0.025 µM.

Turning to `CC(C)Oc1cc(-c2cc(F)ccc2Oc2ccc(S(=O)(=O)Nc3nccs3)cc2C#N)n(C)n1` [Example 310, 3-cyano-4-[4-fluoro-2-(3-isopropoxy-1-methyl-1H-pyrazol-5-yl)phenoxy]-N-1,3-thiazol-2-ylbenzenesulfonamide], the IC50 is reported as above 1 µM.

For the compound `Cn1nccc1-c1ccc(I)cc1Oc1ccc(S(=O)(=O)Nc2ncns2)cc1C#N` [Example 507, 3-cyano-4-[5-iodo-2-(1-methyl-1H-pyrazol-5-yl)phenoxy]-N-1,2,4-thiadiazol-5-ylbenzenesulfonamide], the IC50 was 0.011 µM.

As for `Cn1nccc1-c1cc(Cl)ccc1Oc1ccc(S(=O)(=O)Nc2ccc(C(F)(F)F)cn2)cc1C#N` [Example 772, 4-[4-chloro-2-(1-methyl-1H-pyrazol-5-yl)phenoxy]-3-cyano-N-[5-(trifluoromethyl)pyridin-2-yl]benzenesulfonamide], the IC50 was 31 µM.

For the compound `CN(C)Cc1cnn(-c2ccc(Oc3ccc(S(=O)(=O)Nc4nccs4)cc3C#N)cc2)c1` [Example 377, 3-cyano-4-(4-{4-[(dimethylamino)methyl]-1H-pyrazol-1-yl}phenoxy)-N-1,3-thiazol-2-ylbenzenesulfonamide], the IC50 is above 1 µM.

Turning to `N#Cc1cc(S(=O)(=O)Nc2ncc(Cl)s2)ccc1Oc1ccc(Cl)cc1C1CCNCC1` [Example 593, 4-(4-Chloro-2-piperidin-4-ylphenoxy)-N-(5-chloro-1,3-thiazol-2-yl)-3-cyanobenzenesulfonamide], the IC50 is 0.035 µM.

Consider `N#Cc1cc(S(=O)(=O)Nc2ncc(Br)s2)ccc1Oc1c(Br)cc(Br)cc1-c1ccccc1` [Example 512, N-(5-Bromo-1,3-thiazol-2-yl)-3-cyano-4-[(3,5-dibromobiphenyl-2-yl)oxy]benzenesulfonamide], for which the IC50 was 3.4 µM.

For the compound `O=S(=O)(Nc1cscn1)c1cc(Cl)c(Oc2cc(C(F)(F)F)ccc2-c2cncnc2)cc1F` [Example 518, 5-chloro-2-fluoro-4-[2-pyrimidin-5-yl-5-(trifluoromethyl)phenoxy]-N-1,3-thiazol-4-ylbenzenesulfonamide], the 50% inhibitory concentration (IC50) is listed as above 1 µM.

Take `Cn1nccc1-c1cc(Cl)ccc1Oc1ccc(S(=O)(=O)Nc2ccc(C#N)cn2)cc1C#N` [Example 466, 4-[4-chloro-2-(1-methyl-1H-pyrazol-5-yl)phenoxy]-3-cyano-N-(5-cyanopyridin-2-yl)benzenesulfonamide]: the half-maximal inhibitory concentration (IC50) was 36 µM.

Regarding `Cn1nccc1-c1cc(Cl)ccc1Oc1ccc(S(=O)(=O)Nc2ccc(F)cn2)cc1F` [Example 514, 4-[4-chloro-2-(1-methyl-1H-pyrazol-5-yl)phenoxy]-3-fluoro-N-(5-fluoropyridin-2-yl)benzenesulfonamide], the IC50 is 1.1 µM.

On to `CC(C)(C)n1nccc1-c1cc(F)ccc1Oc1ccc(S(=O)(=O)Nc2ncns2)cc1C#N` [Example 285, 4-[2-(1-tert-butyl-1H-pyrazol-5-yl)-4-fluorophenoxy]-3-cyano-N-1,2,4-thiadiazol-5-ylbenzenesulfonamide], for which the IC50 is 0.62 µM.

For the compound `O=S(=O)(Nc1nncs1)c1cc(F)c(Oc2ccc(Cl)cc2-c2ccn[nH]2)cc1F` [Example 302, 4-[4-chloro-2-(1H-pyrazol-5-yl)phenoxy]-2,5-difluoro-N-1,3,4-thiadiazol-2-ylbenzenesulfonamide], the IC50 is 0.16 µM.

`N#Cc1cc(S(=O)(=O)Nc2nccs2)ccc1Oc1ccc(Cl)cc1-c1c[nH]nc1N` [Example 706, 4-[2-(3-amino-1H-pyrazol-4-yl)-4-chlorophenoxy]-3-cyano-N-1,3-thiazol-2-ylbenzenesulfonamide]: the IC50 is 0.026 µM.

With `Cc1nsc(NS(=O)(=O)c2ccc(Oc3ccc(Cl)cc3-c3ccnn3C)c(F)c2)n1` [Example 515, 4-[4-chloro-2-(1-methyl-1H-pyrazol-5-yl)phenoxy]-3-fluoro-N-(3-methyl-1,2,4-thiadiazol-5-yl)benzenesulfonamide], the IC50 was 1.9 µM.

Take `O=S(=O)(Nc1ncc(F)s1)c1cc(F)c(Oc2ccc(Cl)cc2-c2cn[nH]c2)cc1F` [Example 683, 4-[4-chloro-2-(1H-pyrazol-4-yl)phenoxy]-2,5-difluoro-N-(5-fluoro-1,3-thiazol-2-yl)benzenesulfonamide]: the IC50 was 0.022 µM.

On to `N#Cc1cc(S(=O)(=O)Nc2ncns2)ccc1Oc1cc(F)c(Cl)cc1-c1ccn[nH]1` [Example 763, 4-[4-chloro-5-fluoro-2-(1H-pyrazol-5-yl)phenoxy]-3-cyano-N-1,2,4-thiadiazol-5-ylbenzenesulfonamide], for which the IC50 was 0.034 µM.

The same assay, now with this note: estimated IC50; hSCN9A HEK cells, PatchXpress platform; Examples 815-1040.
For `N#Cc1cc(S(=O)(=O)Nc2ncns2)ccc1Oc1ccc(Cl)cc1C1CCOCC1` [Example 836, 4-[4-chloro-2-(tetrahydro-2H-pyran-4-yl)phenoxy]-3-cyano-N-1,2,4-thiadiazol-5-ylbenzenesulfonamide], the IC50 was 0.04 µM.

With `N#Cc1cc(S(=O)(=O)Nc2ncns2)ccc1Oc1ccc(OC(F)(F)F)cc1-c1ccnnc1` [Example 878, 3-cyano-4-[2-pyridazin-4-yl-4-(trifluoromethoxy)phenoxy]-N-1,2,4-thiadiazol-5-ylbenzenesulfonamide], the IC50 was 0.0058 µM.

With `Nc1nccc(-c2cc(Cl)ccc2Oc2cc(F)c(S(=O)(=O)Nc3ncns3)cc2F)n1` [Example 849, 4-[2-(2-aminopyrimidin-4-yl)-4-chlorophenoxy]-2,5-difluoro-N-1,2,4-thiadiazol-5-ylbenzenesulfonamide], the IC50 is 0.12 µM.

Take `N#Cc1cc(S(=O)(=O)Nc2ncc(Cl)s2)ccc1Oc1ccc(F)cc1-c1cccc(N)n1` [Example 991, 4-[2-(6-aminopyridin-2-yl)-4-fluorophenoxy]-N-(5-chloro-1,3-thiazol-2-yl)-3-cyanobenzenesulfonamide]: the IC50 is reported as above 0.01 µM.

As for `O=S(=O)(Nc1ncns1)c1cc(F)c(Oc2ccc(OC(F)(F)F)cc2-c2ccnnc2)cc1F` [Example 897, 2,5-difluoro-4-[2-pyridazin-4-yl-4-(trifluoromethoxy)phenoxy]-N-1,2,4-thiadiazol-5-ylbenzenesulfonamide], the IC50 was 0.0058 µM.

With `O=S(=O)(Nc1ccncn1)c1ccc(Oc2ccc(Cl)cc2-c2ccnnc2)c(Cl)c1` [Example 847, 3-chloro-4-(4-chloro-2-pyridazin-4-ylphenoxy)-N-pyrimidin-4-ylbenzenesulfonamide], the IC50 was 0.13 µM.

`N#Cc1cc(S(=O)(=O)Nc2ncns2)ccc1Oc1ccc(Cl)cc1-c1ccnn1C1CCOC1` (stereo not shown) [Example 882, 4-{4-chloro-2-[1-(tetrahydrofuran-3-yl)-1H-pyrazol-5-yl]phenoxy}-3-cyano-N-1,2,4-thiadiazol-5-ylbenzenesulfonamide]: the half-maximal inhibitory concentration (IC50) is 0.04 µM.

For `N#Cc1cc(S(=O)(=O)Nc2ncns2)ccc1Oc1ccc(C(F)(F)F)cc1-c1ccc[n+]([O-])c1` [Example 979, 3-cyano-4-[2-(1-oxidopyridin-3-yl)-4-(trifluoromethyl)phenoxy]-N-1,2,4-thiadiazol-5-ylbenzenesulfonamide], the IC50 is given as 0.11 µM.
